# Measured values taken from patent publication US8217035B2, “Pyrimidine derivatives used as PI-3-kinase inhibitors” (Novartis AG, priority 2006, dated 2012).
# Like-named read-outs stand apart in the source and are kept apart here.
# Key:
# PI3 kinase alpha = PI3 kinase alpha (Homo sapiens, UniProt P42336); experiment: PI3K ATP depletion assay (Biological Method 1, Assay 3; KinaseGlo luminescence); type: biochemical; details: ATP depletion assay, read-out: PI3 Kinase Alpha, IC50
# Description: The PI3 kinase alpha IC50 values shown in Table 1 were determined according to the ATP depletion assay as disclosed herein in Biological Method 1.
# Assay 3: ATP Depletion Assay
# Compounds to be tested are dissolved in DMSO and directly distributed into a black 384-well plate at 1.25 μL per well. To start the reaction, 25 μL of 10 nM PI3 kinase and 5 μg/mL 1-alpha-phosphatidylinositol (PI) are added into each well followed by 25 μL of 2 μM ATP. The reaction is performed until approx 50% of the ATP is depleted, and then stopped by the addition of 25 μL of KinaseGlo solution purchased from Promega. The stopped reaction is incubated for 5 minutes and the remaining ATP is then detected via luminescence.
# [1] = tested on: A2780 ovarian cancer cells; experiment: Cellular proliferation in A2780 cells, Cell Titer Glo (Biological Method 4); type: cell-based; details: Homo sapiens
# Description: In addition, many of the compounds of Table 1 were tested to determine their inhibitory activity in a cellular proliferation assay according to Biological Method 4.
# The ability of the compounds of the invention to inhibit cellular proliferation were determined by using Cell Titer Glo, a commercially available assay from Promega Corporation. A2780 ovarian cancer cells were seeded in TC treated 96-well plates at a density of 1,000 per well in DMEM, 10% FBS, 1% Sodium Pyruvate, and 1% Penicillin Streptomycin for a minimum of 2 hrs prior to addition of compound. For each concentration of test compound, 2 μl (500×) aliquots of compound or 100% DMSO diluted in 500 μl of culture medium for 2× concentration then diluted 1× on the Cells. Cells were incubated for 72 hrs at 37° C., 5% CO2. After the 72 hour incubation, Cell Titer Glo reagent is added to determine number of viable cells remaining after exposure to the compound, and the EC50 value was calculated. The assay was performed according to the manufacturer's instruction (Promega Corporation, Madison, Wis. USA). Each experimental condition was performed in duplicate.
# [2] = ovarian cancer cell line A2780, Biological Method 4
# PI3 kinase alpha, sequence (P42336 whole entry): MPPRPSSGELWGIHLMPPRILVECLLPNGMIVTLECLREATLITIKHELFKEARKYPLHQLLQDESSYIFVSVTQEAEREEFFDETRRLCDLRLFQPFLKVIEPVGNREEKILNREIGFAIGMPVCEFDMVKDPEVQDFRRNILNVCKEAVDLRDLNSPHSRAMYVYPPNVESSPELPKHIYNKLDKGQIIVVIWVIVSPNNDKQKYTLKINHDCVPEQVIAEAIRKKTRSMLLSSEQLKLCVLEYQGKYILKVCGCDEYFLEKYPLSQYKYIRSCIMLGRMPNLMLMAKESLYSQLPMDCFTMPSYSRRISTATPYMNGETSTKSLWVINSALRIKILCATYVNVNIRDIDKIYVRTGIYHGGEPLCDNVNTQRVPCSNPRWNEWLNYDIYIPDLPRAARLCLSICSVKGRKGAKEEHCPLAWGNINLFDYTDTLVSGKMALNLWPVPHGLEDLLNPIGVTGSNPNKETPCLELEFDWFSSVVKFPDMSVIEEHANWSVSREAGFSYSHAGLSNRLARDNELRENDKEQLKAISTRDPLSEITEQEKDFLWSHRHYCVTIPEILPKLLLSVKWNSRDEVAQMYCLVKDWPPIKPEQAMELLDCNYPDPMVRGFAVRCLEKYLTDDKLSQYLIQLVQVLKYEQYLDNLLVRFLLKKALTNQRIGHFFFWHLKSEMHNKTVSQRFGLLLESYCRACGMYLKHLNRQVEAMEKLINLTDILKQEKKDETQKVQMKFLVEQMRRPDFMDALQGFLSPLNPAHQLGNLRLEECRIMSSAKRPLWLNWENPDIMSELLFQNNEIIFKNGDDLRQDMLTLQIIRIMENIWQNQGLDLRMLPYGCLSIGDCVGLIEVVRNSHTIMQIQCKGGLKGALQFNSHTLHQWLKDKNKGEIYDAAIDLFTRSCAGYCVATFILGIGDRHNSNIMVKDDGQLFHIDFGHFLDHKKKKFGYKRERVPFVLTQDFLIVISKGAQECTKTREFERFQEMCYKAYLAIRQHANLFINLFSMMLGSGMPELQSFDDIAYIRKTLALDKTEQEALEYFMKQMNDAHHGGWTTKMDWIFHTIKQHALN
# PI3 kinase alpha, sequence (P27986 whole entry partner): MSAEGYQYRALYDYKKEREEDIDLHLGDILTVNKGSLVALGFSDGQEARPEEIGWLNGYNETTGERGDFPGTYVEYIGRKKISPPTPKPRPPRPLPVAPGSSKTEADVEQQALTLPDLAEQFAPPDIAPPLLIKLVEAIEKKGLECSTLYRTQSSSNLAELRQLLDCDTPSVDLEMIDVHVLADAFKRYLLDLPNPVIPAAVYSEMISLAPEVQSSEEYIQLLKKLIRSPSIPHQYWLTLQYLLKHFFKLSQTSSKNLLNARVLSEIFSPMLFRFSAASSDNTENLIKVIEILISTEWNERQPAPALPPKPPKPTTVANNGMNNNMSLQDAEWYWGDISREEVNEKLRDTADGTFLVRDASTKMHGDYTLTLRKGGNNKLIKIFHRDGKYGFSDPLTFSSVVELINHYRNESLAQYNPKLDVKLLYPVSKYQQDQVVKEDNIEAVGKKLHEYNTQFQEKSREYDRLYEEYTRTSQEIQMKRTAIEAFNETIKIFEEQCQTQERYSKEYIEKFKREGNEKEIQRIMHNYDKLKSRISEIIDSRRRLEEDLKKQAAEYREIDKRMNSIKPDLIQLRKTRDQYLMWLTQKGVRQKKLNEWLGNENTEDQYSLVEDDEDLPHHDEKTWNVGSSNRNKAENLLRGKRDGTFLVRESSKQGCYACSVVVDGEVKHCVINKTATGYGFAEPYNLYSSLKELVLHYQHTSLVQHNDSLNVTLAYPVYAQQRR
SMILES,IC50 (PI3 kinase alpha; Biological Method 1) [nM],"EC50 [1, 2] [µM]",IC50 (PI3 kinase alpha) [nM],EC50 ([1]; ovarian cancer cell line A2780) [µM]
CS(=O)(=O)Nc1cccc(-c2cc(-c3ccc(N)nc3)nc(N3CCOCC3)n2)c1 [Compound 249],< 1000,< 10,,
Cc1nc(N)ncc1-c1ccnc(N2CCOCC2)n1 [Compound 478],,,< 1000,< 25
CS(=O)(=O)c1cccc(Nc2cc(-c3cnc(N)cc3C(F)(F)F)nc(N3CCOCC3)n2)c1 [Compound 238],< 1000,< 10,,
CC(C)(C)NS(=O)(=O)c1ccccc1-c1cc(-c2cnc(N)cc2C(F)(F)F)nc(N2CCOCC2)n1 [Compound 544],,,< 1000,< 25
NC(=O)c1cccc(-c2cc(-c3ccc(N)nc3)nc(N3CCOCC3)n2)c1 [Compound 251],< 1000,< 10,,
CC(=O)c1cccc(-c2cc(-c3ccc(N)nc3)nc(N3CCOCC3)n2)c1 [Compound 252],< 1000,< 10,,
Nc1ccc(-c2cc(Nc3ccc4c(c3)OCC(=O)N4)nc(N3CCOCC3)n2)cn1 [Compound 384],< 1000,< 10,,
Cc1cc(Nc2cc(-c3cnc(N)[nH]c3=O)nc(N3CCOCC3)n2)ccn1 [Compound 451],,,< 1000,< 10
Nc1ccc(-c2cc(Nc3ccc4nccnc4c3)nc(N3CCOCC3)n2)cn1 [Compound 377],< 1000,< 10,,
Nc1ccc(-c2cc(Nc3ccc(S(=O)(=O)C(F)(F)F)cc3)nc(N3CCOCC3)n2)cn1 [Compound 358],< 1000,< 10,,
Nc1ncc(-c2cc(Nc3cnccc3C(F)(F)F)nc(N3CCOCC3)n2)cn1 [Compound 390],< 1000,< 10,,
Nc1ccc(-c2cc(Nc3ccc(N4CCNCC4)nc3)nc(N3CCOCC3)n2)cn1 [Compound 299],< 1000,< 10,,
Nc1ncc(-c2cc(Nc3ccc4c(c3)NC(=O)CO4)nc(N3CCOCC3)n2)cn1 [Compound 413],,,< 1000,< 10
Nc1ccc(-c2cc(-n3ncc4cccc(N)c43)nc(N3CCOCC3)n2)cn1 [Compound 345],< 1000,< 10,,
Cc1c(-c2ccc(S(C)(=O)=O)cc2)nc(N2CCOCC2)nc1-c1cnc(N)nc1 [Compound 549],,,< 1000,< 10
COc1cccc(CCNc2cc(-c3ccc(N)nc3)nc(N3CCOCC3)n2)c1 [Compound 303],< 1000,< 10,,
CC(=O)N1CCC[C@@H](Oc2cc(-c3cnc(N)cc3C(F)(F)F)nc(N3CCOCC3)n2)C1 [Compound 453],,,< 1000,< 10
CC(C)(C)OC(=O)CNc1ccc(Nc2cc(-c3cnc(N)cc3C(F)(F)F)nc(N3CCOCC3)n2)cn1 [Compound 491],,,< 1000,< 25
Nc1ncc(-c2nc(N3CCOCC3)ncc2C(=O)N2CCNC(=O)C2)cn1 [Compound 427],,,< 10000,< 25
Nc1ncc(-c2cc(OCCCN3CCOCC3)nc(N3CCOCC3)n2)cn1 [Compound 511],,,< 1000,< 10
Nc1ncc(-c2cc(Nc3ccc4[nH]ncc4c3)nc(N3CCOCC3)n2)cn1 [Compound 522],,,< 1000,< 10
CC(=O)N1CCC(Oc2ccc(Nc3cc(-c4cnc(N)nc4N)nc(N4CCOCC4)n3)cn2)CC1 [Compound 261],< 1000,< 10,,
Nc1cc(C(F)(F)F)c(-c2cc(Cl)nc(N3CCOCC3)n2)cn1 [Compound 467],,,< 1000,< 25
Nc1cc(C(F)(F)F)c(-c2cc(Nc3cc(Cl)ccn3)nc(N3CCOCC3)n2)cn1 [Compound 241],< 1000,< 10,,
Nc1cc(C(F)(F)F)c(-c2cc(-c3cncc(CN4CCCCC4)c3)nc(N3CCOCC3)n2)cn1 [Compound 263],< 1000,< 10,,
Nc1ncc(-c2cc(Nc3nccc(C(F)(F)F)n3)nc(N3CCOCC3)n2)c(C(F)(F)F)n1 [Compound 216],< 1000,< 10,,
Nc1ncc(-c2cc(N3CCCC3Cc3ccccc3)nc(N3CCOCC3)n2)cn1 (stereo not shown) [Compound 407],,,< 1000,< 10
NC(=O)c1ccccc1-c1cc(-c2ccc(N)nc2)nc(N2CCOCC2)n1 [Compound 254],< 1000,< 25,,
COc1ccc(Nc2cc(-c3ccc(N)nc3)nc(N3CCOCC3)n2)cc1 [Compound 442],,,< 1000,< 10

# Next, values leading:
IC50 (PI3 kinase alpha; Biological Method 1) [nM],"EC50 [1, 2] [µM]",IC50 (PI3 kinase alpha) [nM],EC50 ([1]; ovarian cancer cell line A2780) [µM],SMILES
< 1000,< 10,,,Nc1cc(C(F)(F)F)c(-c2cc(-c3cncc(CN4CCCC4)c3)nc(N3CCOCC3)n2)cn1 [Compound 264]
< 1000,< 10,,,CN1CCN(S(=O)(=O)c2cccc(Nc3cc(-c4cnc(N)cc4C(F)(F)F)nc(N4CCOCC4)n3)c2)CC1 [Compound 315]
< 1000,< 25,,,Nc1cc(C(F)(F)F)c(-c2cc(N3CCC(O)CC3)nc(N3CCOCC3)n2)cn1 [Compound 323]
< 1000,< 10,,,CS(=O)(=O)c1cncc(-c2cc(-c3cnc(N)cc3C(F)(F)F)nc(N3CCOCC3)n2)c1 [Compound 266]
< 1000,< 10,,,Cn1cc(-c2cc(-c3ccc(N)nc3)nc(N3CCOCC3)n2)cn1 [Compound 247]
< 1000,< 10,,,NC(=O)c1ccnc(Nc2cc(-c3cnc(N)cc3C(F)(F)F)nc(N3CCOCC3)n2)c1 [Compound 242]
,,< 1000,< 25,Nc1ncc(-c2cc(Cl)nc(N3CCOCC3)n2)c(N)n1 [Compound 464]
,,< 1000,< 25,N#Cc1cc(-c2ccc(N)nc2)nc(N2CCOCC2)n1 [Compound 415]
< 1000,< 10,,,CN(C)CCOc1ccc(Nc2cc(-c3cnc(N)cc3C(F)(F)F)nc(N3CCOCC3)n2)cn1 [Compound 269]
,,< 1000,< 1,COCCNc1cc(-c2cnc(N)nc2)nc(N2CCOCC2)n1 [Compound 14]
< 1000,< 10,,,Nc1cc(C(F)(F)F)c(-c2cc(Nc3cccc(S(=O)(=O)N4CCOCC4)c3)nc(N3CCOCC3)n2)cn1 [Compound 316]
,,< 1000,< 10,CC(C)N1CCN(c2ccc(Nc3cc(-c4ccc(N)nc4)nc(N4CCOCC4)n3)cn2)CC1 [Compound 509]
< 1000,< 25,,,COc1ccccc1CCNc1cc(-c2ccc(N)nc2)nc(N2CCOCC2)n1 [Compound 304]
< 1000,< 10,,,Nc1ccc(-c2cc(Nc3cccnc3)nc(N3CCOCC3)n2)cn1 [Compound 378]
< 1000,< 10,,,Nc1ncc(-c2cc(C(=O)Nc3cccnc3)nc(N3CCOCC3)n2)cn1 [Compound 231]
< 1000,< 25,,,Nc1ccc(-c2cc(Nc3cc(Cl)ccn3)nc(N3CCOCC3)n2)cn1 [Compound 349]
< 1000,< 10,,,Nc1cc(C(F)(F)F)c(-c2cc(Nc3ccc(OC4CCOC4)nc3)nc(N3CCOCC3)n2)cn1 (stereo not shown) [Compound 268]
,,< 1000,< 10,CN(C)c1cc(-c2cnc(N)nc2)nc(N2CCOCC2)n1 [Compound 400]
< 1000,< 10,,,CN1CCC(C(=O)Nc2cc(-c3cnc(N)nc3)nc(N3CCOCC3)n2)CC1 [Compound 289]
,,< 1000,< 10,Nc1ncc(-c2cc(C(F)(F)F)nc(N3CCOCC3)n2)cn1 [Compound 472]
,,< 1000,< 10,CC(=O)N1CC[C@H](Oc2cc(-c3cnc(N)cc3C(F)(F)F)nc(N3CCOCC3)n2)C1 [Compound 22]
< 1000,< 25,,,Nc1ncc(-c2nc(N3CCOCC3)ncc2N)cn1 [Compound 258]
,,< 1000,< 10,Nc1ccc(-c2cc(Nc3ccccc3F)nc(N3CCOCC3)n2)cn1 [Compound 440]
< 1000,< 10,,,Nc1cc(C(F)(F)F)c(-c2cc(Oc3ccc4ncccc4c3)nc(N3CCOCC3)n2)cn1 [Compound 217]
< 1000,< 1,,,Nc1cc(C(F)(F)F)c(-c2cc(N3CC[C@H](F)C3)nc(N3CCOCC3)n2)cn1 [Compound 332]
,,< 1000,< 10,CC(C)N1CCN(c2ccc(Nc3cc(-c4cnc(N)cc4C(F)(F)F)nc(N4CCOCC4)n3)cn2)CC1 [Compound 488]
< 1000,< 10,,,CN(c1cc(-c2ccc(N)nc2)nc(N2CCOCC2)n1)C1CCOCC1 [Compound 368]
,,< 1000,< 25,Nc1ncc(-c2cc(NCC3CCCCC3)nc(N3CCOCC3)n2)cn1 [Compound 406]
< 1000,< 10,,,N#Cc1cccc(Nc2cc(-c3cnc(N)nc3)nc(N3CCOCC3)n2)c1 [Compound 307]
< 1000,< 1,,,CC(=O)c1ccc(Nc2cc(-c3ccc(N)nc3)nc(N3CCOCC3)n2)cc1 [Compound 359]
